In patent US9504674B2, “TrkB agonists and methods of use” (EMORY UNIVERSITY, priority 2010, dated 2016):
Several values for one entry are separate records, joined by “and”; a condition that tells them apart may be missing. Equal values may be shown once. Entries after “also recorded” stand apart in the source; their conditions may differ.

Assays:
TrkB [1] = target: T1, TrkB (Mus musculus, UniProt P15209); assay: TrkB activation in mouse brain after single oral administration (immunoblotting); type: in vivo; details: 1 mg/kg oral, C57BL/6J mice
T1 construct: from tissue; host or cells: brain of wild-type C57BL/6J mice
T1 sequence (P15209 32-821): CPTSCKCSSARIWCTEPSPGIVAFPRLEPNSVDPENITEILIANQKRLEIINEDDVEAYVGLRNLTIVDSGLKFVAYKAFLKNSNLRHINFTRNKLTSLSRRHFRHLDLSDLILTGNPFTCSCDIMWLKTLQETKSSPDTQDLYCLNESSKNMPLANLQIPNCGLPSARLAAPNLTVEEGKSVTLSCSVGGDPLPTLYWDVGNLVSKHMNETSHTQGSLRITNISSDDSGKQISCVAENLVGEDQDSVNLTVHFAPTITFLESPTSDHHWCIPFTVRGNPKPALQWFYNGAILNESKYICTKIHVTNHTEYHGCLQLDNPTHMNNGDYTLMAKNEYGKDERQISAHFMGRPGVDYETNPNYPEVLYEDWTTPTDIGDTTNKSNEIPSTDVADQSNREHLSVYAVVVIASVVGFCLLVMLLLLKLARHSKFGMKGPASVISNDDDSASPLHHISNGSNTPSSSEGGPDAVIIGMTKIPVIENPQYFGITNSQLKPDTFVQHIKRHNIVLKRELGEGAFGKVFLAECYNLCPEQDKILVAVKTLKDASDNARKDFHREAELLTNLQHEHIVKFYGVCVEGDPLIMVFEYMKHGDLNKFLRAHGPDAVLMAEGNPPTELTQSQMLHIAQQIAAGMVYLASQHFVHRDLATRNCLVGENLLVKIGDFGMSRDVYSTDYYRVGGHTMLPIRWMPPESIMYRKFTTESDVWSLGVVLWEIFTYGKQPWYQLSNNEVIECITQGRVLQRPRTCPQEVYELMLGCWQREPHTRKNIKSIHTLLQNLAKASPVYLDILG
Description: Rat primary neurons were treated with 500 nM. 4′-DMA-7,8-DHF from various time points. The neuronal lysates were analyzed with various antibodies. 4′-DMA-7,8-DHF rapidly activated TrkB and its downstream signaling cascades (left panels). […] One mg/kg of 4′-DMA-7,8-DHF and 7,8-DHF were orally administrated into C57 BL/6J mice and TrkB phosphorylation and its downstream signaling cascades including Akt and MAPK in mouse brain were analyzed by immunoblotting at various time points. TrkB activation by 4′-DMA-7,8-DHF peaked at 4 h, whereas the maximal TrkB activation by 7,8-DHF in mouse brain occurred at 1-2 h (middle panels).
1 mg/kg of various compounds were orally administrated into C57 BL/6J mice and TrkB phosphorylation and its downstream signaling cascades including Akt and MAPK in mouse brain were analyzed by immunoblotting at 2 h.
Time course assay with compound i and m in mouse brain. 1 mg/kg of compound i and m were orally administrated into C57 BL/6J mice and TrkB phosphorylation and its downstream signaling cascades including Akt and MAPK in mouse brain were analyzed by immunoblotting at various time points.
(§1) To compare the TrkB activation by these synthetic compounds, primary cortical cultures were prepared. Cortical neurons were treated with 500 nM of various compounds for 20 min and cell lysates were collected. […] Replacing the H-bond acceptor O atom with hydrogen bond donor NH abolishes its stimulatory effect. […] On the other hand, 7,8-DHF provoked TrkB activation with the minimal concentration of 100 nM (FIG. 2B, right panels). To further study 4′-DMA-7,8-DHF's kinetics on TrkB activation, primary neurons were treated for various time points. 4′-DMA-7,8-DHF swiftly activated TrkB as soon as 5 minutes following treatment. […] To compare the stimulatory effect on TrkB receptor in mouse brains, 1 mg/kg of the synthesized derivatives were injected into C57BL/6J mice. TrkB activation was monitored at different time points.
The compounds were orally injected (1 mg/kg) into C57BL/6J mice. The TrkB and its downstream signaling cascades activation at 2 h were examined after drug administration with mouse brain tissues. […] The downstream p-Akt and p-MAPK tightly coupled to p-TrkB signals.

[2] = Forced swim test in C57BL/6J mice; type: in vivo, mouse; details: 5 mg/kg oral for 21 days, male C57BL/6J mice, immobility in last 4 min of 6 min
Description: (§2) Male C57BL/6J mice (8 mice/group) were orally administrated by gavage with 5 mg/kg 4′-DMA-7,8-DHF and 7,8-DHF and vehicle solvent saline for 21 days and subjected to a forced swim test (6 min, immobility recorded in the last 4 min). Data are presented as mean±SEM.
as §2, with “Forced swim test with imidazole flavonoid and compound i. Male” for “Male”, “days,” for “days”
Adult male mice (2-3 months old) were randomly submitted to a forced swim test without a pre-swim. Saline, 4′-DMA-7,8-DHF and 7,8-DHF (5 mg/kg) were orally injected for 21 days. The mice were allowed to adapt to the test room for 2 days. The mice were placed in a clear glass cylinder with a diameter of 16 cm, half-filled with clear water at 24° C.
(§3) Accumulating evidence supports that BDNF plays a role in mediating therapeutic effects of antidepressants. Infusion of exogenous BDNF into hippocampus or brain stem has anti-depressant-like behavioral effect. A forced swim test is broadly used for screening of potential antidepressant drugs and is widely used to measure antidepressant activity. To explore whether 4′-DMA-7,8-DHF and 7,8-DHF have any antidepressant effect like BDNF, a forced swim test was conducted after chronic treatment of the mice for 21 days via oral injection.
(§4) BDNF/TrkB signaling plays an role in mediating antidepressants' therapeutic effects. A forced swim test is broadly used for screening of potential antidepressant drugs and is widely used to measure antidepressant activity. To explore whether imidazole flavanoid and compound i have any antidepressant effect like BDNF, a forced swim test was conducted after chronic treatment of the mice for 21 days via oral administration.

TrkB [3] = target: T2, TrkB (Rattus norvegicus, UniProt Q63604); assay: TrkB phosphorylation in primary rat cortical neurons (immunoblotting); type: cell-based; details: for TrkB activation (phosphorylation) compared to vehicle control: 500 nM compound, 20 min, primary rat cortical neurons, immunoblotting; for minimal concentration triggering TrkB activation (titration assay): primary cortical neurons, different doses
T2 construct: endogenous in cells; host or cells: primary rat cortical neurons (E17 embryos, 13 DIV)
T2 sequence (Q63604 32-821): as the sequence (P15209 32-821) above, with T3M, S9T, A10T, V32I, R63K, S84G, M153T, L185I, S394T, S770N counted along it
Description: (§5) Primary rat cortical neurons from E17 embryos (13 DIV) were treated with 500 nM various chemicals for 15 min. The neuronal cell lysates were collected and resolved on 10% SDS-PAGE. Immunoblotting was conducted with various antibodies. p-TrkB Y817 antibody was employed at 1:20000-40000 dilution.
as §5, with “days in vitro (DIV))” for “DIV)”, “1:20,000-40,000 dilution (top panel). Equal amount of TrkB was loaded in all of the samples (middle panel). P-Akt 473 ELISA analysis with the neuronal lysates (bottom panel).” for “1:20000-40000 dilution.”
7,8-dihydroxyflavone (7,8-DHF) is a small molecular TrkB agonist. Preliminary structure-activity relationship study (SAR) supports that 7,8-catechol moiety is essential for the agonistic effect by 7,8-DHF. To explore the structure-activity relationship (SAR) in depth, the TrkB stimulatory activity was examined by numerous flavonoid derivatives. The numeric positions and each ring's nomenclature are designated (FIG. 1A). Compounds were dissolved in DMSO, then diluted into […] with 1× PBS (final vehicle contains 10% DMSO/PBS) (FIG. 1B). Primary rat cortical neurons were treated with 500 nM compounds for 20 min. The cell lysates were analyzed by immunoblotting. […] Downstream activation of the TrkB target Akt was tightly correlated with TrkB activation patterns by these derivatives (FIG. 1C, bottom panel). As observed, the hydroxy groups on B ring can regulate 7,8-DHF's stimulatory activity on TrkB receptor. As 2′-hydroxy, especially 3′-hydroxy group, elevates the agonistic effect, whereas 4′-hydroxy group diminishes its stimulatory effect.
as §1
Additional compounds are listed as designated from a to m (FIG. 6A). The compounds were dissolved in DMSO, then diluted into 500 μM with 1× PBS (final vehicle contains 10% DMSO/PBS). The primary rat cortical neurons (13 DIV) were treated with 500 nM compounds for 20 min. The cell lysates were analyzed by immunoblotting. […] Moreover, p-Akt ELISA was monitored to quantitatively analyze the agonistic activities of these compounds.

TrkA = target: T3, TrkA (Mus musculus, UniProt Q3UFB7); assay: TrkA activation in brain of chronically treated mice (immunoblotting p-TrkA 794); type: in vivo; details: 5 mg/kg oral 21 days, brain lysates
T3 construct: from tissue; host or cells: brain of chronically treated C57BL/6J mice
T3 sequence (Q3UFB7 34-799): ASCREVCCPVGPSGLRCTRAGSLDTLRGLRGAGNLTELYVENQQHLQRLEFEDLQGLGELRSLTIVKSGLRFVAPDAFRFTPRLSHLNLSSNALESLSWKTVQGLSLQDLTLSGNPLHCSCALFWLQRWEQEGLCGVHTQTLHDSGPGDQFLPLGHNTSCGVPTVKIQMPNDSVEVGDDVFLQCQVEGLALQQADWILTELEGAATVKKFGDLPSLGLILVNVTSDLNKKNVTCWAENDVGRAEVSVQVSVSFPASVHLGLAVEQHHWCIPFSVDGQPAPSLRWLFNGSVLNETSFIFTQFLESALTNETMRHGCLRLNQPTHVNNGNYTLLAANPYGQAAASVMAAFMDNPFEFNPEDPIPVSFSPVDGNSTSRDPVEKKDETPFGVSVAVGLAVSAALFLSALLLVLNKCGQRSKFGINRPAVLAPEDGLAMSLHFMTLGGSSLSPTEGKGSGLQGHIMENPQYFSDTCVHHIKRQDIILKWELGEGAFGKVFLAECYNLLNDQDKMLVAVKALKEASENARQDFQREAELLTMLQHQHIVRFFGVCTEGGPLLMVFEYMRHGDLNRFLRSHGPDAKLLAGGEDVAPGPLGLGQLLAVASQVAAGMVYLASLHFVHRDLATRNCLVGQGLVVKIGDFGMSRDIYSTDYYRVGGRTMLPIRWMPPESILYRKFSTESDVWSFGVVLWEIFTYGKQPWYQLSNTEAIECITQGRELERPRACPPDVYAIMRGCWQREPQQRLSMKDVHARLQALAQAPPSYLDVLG
Description: The brain lysates from above chronically treated mice were analyzed by immunoblotting with anti-p-TrkA 794 and p-TrkB 817.
as §3, §4

[4] = primary neurons, 500 nM, time course

Compound | duration of TrkB agonistic effect in animals compared with 7,8-DHF (TrkB [1]) | time of onset of TrkB activation in mouse brain (TrkB [1]) | time of peak TrkB activation in mouse brain (TrkB [1]) | TrkB phosphorylation in mouse brain at 2 h (TrkB [1]) | TrkB activity in mouse brain at 16 h (TrkB [1]) | swimming immobility in forced swim test [2] | TrkB activation (phosphorylation) compared to vehicle control (TrkB [3]) | TrkB activation (phosphorylation) compared to vehicle control (TrkB [3]; listed as compound a) | agonistic effect on TrkB relative to parental 7,8-DHF (TrkB [3]; from titration assays) | minimal concentration triggering TrkB activation (titration assay) (TrkB [3]) | time at which TrkB signal decayed back to baseline (TrkB [3]; [4]) | time to TrkB activation following treatment (TrkB [3]; [4]) | TrkA activation in mouse brain after chronic treatment (TrkA) | TrkB activation in mouse brain, time course, compared with compound i (TrkB [1]; various time points) | swimming immobility in forced swim test ([2]; listed as imidazole flavanoid) | swimming immobility in forced swim test ([2]; listed as imidazole-derivative)
CN(C)c1ccc(-c2cc(=O)c3ccc(O)c(O)c3o2)cc1 [4′-DMA-7,8-DHF, 4′-dimethylamino-7,8-dihydroxyflavone] | sustained longer in animals; also recorded: longer period of TrkB activation in mouse brain | 1 h | 8 h and 4 h | exhibited the strongest TrkB phosphorylation | partially decayed at 16 h | evidently reduced the immobility | strongly activated TrkB | activated TrkB better than compounds b to d | about 10 fold | 10 nM | 30 to 180 min | 5 min | not TrkA activation |  |  | 
O=c1cc(-c2ccccc2)oc2c(O)c(O)ccc12 [7,8-DHF, 7,8-dihydroxyflavone, reference compound] |  | approximately 2 h |  |  | Elevated TrkB activity was demonstrable even at 16 h | significantly decreased | stimulated TrkB activation |  |  | 100 nM |  |  | not TrkA activation |  |  | 
CN(C)c1ccc(-c2cc(=O)c3ccc4nc[nH]c4c3o2)cc1 [compound m, 8-(4-(dimethylamino)phenyl)chromeno[7,8-d]imidazol-6(1H)-one] |  |  |  | exhibited the strongest TrkB phosphorylation |  |  | exhibited strong p-TrkB activity |  |  |  |  |  | not TrkA activation | more robust and sustained TrkB activation than compound i | significantly decreased | more robust antidepressant effect than compound i
